{
  "source": "patent US12403167B2",
  "about": "“Phenylethanoid glycoside extract from Acanthus ilicifolius L., preparation method thereof and use as anti-liver injury medicament” (OCEAN UNIVERSITY OF CHINA, priority 2019, dated 2025)",
  "key": {"[1]": {"tested_on": "CCl4-induced acute liver injury mice", "assay": "SOD and MDA in liver tissue homogenate of CCl4-induced liver injury mice", "format": "in vivo", "conditions": "150 mg/kg once/d for 3 days before CCl4; liver 8 h after CCl4; n = 8, x ± s", "procedure": "Forty eight C57 mice (20-22 g) of both genders were supplied by the Experimental Animal Center of Hubei Province, China (NO. 42000600033017). The above 48 mice were randomly divided into 6 groups (8 mice each group), and the phenylethanoid glycoside extract of the present disclosure (the phenylethanoid glycoside group, APhGs) were intraperitoneally injected with the doses of 300 mg/kg (high dose group), 150 mg/kg (medium dose group), and 75 mg/kg (low dose group). The positive group was given silybin (150 mg/kg), and the normal group, as well as model group was given normal saline. All groups were treated as above once/d for 3 consecutive days. Two hours after the last administration, the normal group was intraperitoneally injected with 15 μL of olive oil/mouse, and the other groups were intraperitoneally injected with 15 μL of 50% CCl4 (diluted with olive oil 1:1)/mouse. Eight hours later, all the mice were anesthetized. […]\nThe detection of SOD and MDA of liver homogenate samples from each group mice were conducted according to the instructions of ELISA kit for SOD and MDA. The OD values of liver SOD at 550 nm and MDA at 532 nm were obtained by a microplate reader, respectively. The SOD and MDA enzyme activities were calculated based on the OD values. […]"}, "L-02 hepatocytes": {"tested_on": "L-02 hepatocytes", "assay": "CCl4-induced L-02 hepatocyte damage, CCK-8 cell viability", "format": "cell-based", "conditions": "20 μg/mL, 15 mM CCl4, 24 h, CCl4 model group 24.22±0.33%", "procedure": "L-02 hepatocytes were provided by the China Center for Type Culture Collection (CCTCC). The L-02 hepatocytes were cultured in a medium containing 1640 complete culture medium and DMEM complete medium with 5% CO2 at a constant temperature (37° C.). The cells were harvested in the exponential growth phase. A suspension of 1×10^6 cells/mL was prepared, and then 100 μL of this suspension was added to each well of a 96-well plate with tested medium. The groups were divided into: normal group, negative control group, CCl4 model group, positive group (silybin), and high-, medium-, and low-dosage APhGs groups. After incubation for 24 h, the cells in the experimental group and the positive group were treated with different concentrations of APhGs and silybin. Both the CCl4 model group and the negative control group were added with the same amount of DMSO. Each treatment was repeated five times. […]\nDetermination of cell viability: 10 μL of CCK8 was added to each well to incubate at 37° C. for 2 h. The culture plates were measured with a microplate reader to obtain the absorbances at 450 nm. The cell viability values were calculated by the following formula: Cell viability (%)=(ODsample−ODblank)×100/(ODcontrol−ODblank)\nODsample was the absorbance of the experimental group, ODcontrol was the absorbance of the negative control group, ODblank was the absorbance of the blank control."}, "[2]": {"tested_on": "CCl4-induced acute liver injury mice", "assay": "Serum ALT, AST, SOD and MDA in CCl4-induced liver injury mice", "format": "in vivo", "conditions": "150 mg/kg once/d for 3 days before CCl4; blood 8 h after CCl4; n = 8, x ± s", "procedure": "Forty eight C57 mice (20-22 g) of both genders were supplied by the Experimental Animal Center of Hubei Province, China (NO. 42000600033017). The above 48 mice were randomly divided into 6 groups (8 mice each group), and the phenylethanoid glycoside extract of the present disclosure (the phenylethanoid glycoside group, APhGs) were intraperitoneally injected with the doses of 300 mg/kg (high dose group), 150 mg/kg (medium dose group), and 75 mg/kg (low dose group). The positive group was given silybin (150 mg/kg), and the normal group, as well as model group was given normal saline. All groups were treated as above once/d for 3 consecutive days. Two hours after the last administration, the normal group was intraperitoneally injected with 15 μL of olive oil/mouse, and the other groups were intraperitoneally injected with 15 μL of 50% CCl4 (diluted with olive oil 1:1)/mouse. Eight hours later, all the mice were anesthetized. Then blood was collected by cardiac puncture, and liver tissue was collected for testing biochemical indexes and making pathological sections.\nThe detection of alanine aminotransferase (ALT) and aspartate aminotransferase (AST) of serum samples from each group mice were conducted according to the instructions of ELISA kit for ALT and AST. The absorbances (OD values) of serum ALT and AST at 450 nm were obtained by a microplate reader. The ALT and AST enzyme activities were calculated based on the OD values.\nThe detection of superoxide dismutase (SOD) and malondialdehyde (MDA) of serum samples from each group of mice were conducted according to the instructions of ELISA kit for SOD and MDA. The OD values of serum SOD at 550 nm and MDA at 532 nm were obtained by a microplate reader, respectively. The SOD and MDA enzyme activities were calculated based on the OD values.\nImmunohistochemical analysis software: Image-pro plus 6.0 (Media Cybernetics, Inc., Rockville, MD, USA); experimental data statistical software: GraphPad Prism 7. The results were represented by mean values ±standard deviation (x±s). The difference P<0.05 meant statistically significant."}},
  "data": [
    {"molecule": "COc1cc(C2Oc3cc([C@H]4Oc5cc(O)cc(O)c5C(=O)[C@@H]4O)ccc3OC2CO)ccc1O", "note": "(stereo partly shown) [Positive group, silybin]", "values": [
      {"measurement": "liver tissue MDA", "setting": "[1]", "result": "0.56 ± 0.08", "unit": "nmol/mg prot"},
      {"measurement": "liver tissue SOD", "setting": "[1]", "result": 610.91, "unit": "U/mg prot"},
      {"measurement": "cell survival rate", "setting": "L-02 hepatocytes", "result": "35.92±2.15", "unit": "%"},
      {"measurement": "serum ALT", "setting": "[2]", "result": 736.27, "unit": "U/L"},
      {"measurement": "serum AST", "setting": "[2]", "result": 776.68, "unit": "U/L"},
      {"measurement": "serum MDA", "setting": "[2]", "result": 8.32, "unit": "µM"},
      {"measurement": "serum SOD", "setting": "[2]", "result": 743.47, "unit": "U/mL"}
    ]}
  ]
}
